# Literature values in paper PMC9516332 (Frontiers in Oncology, 2022).
# Like-named read-outs stand apart in the source and are kept apart here.
# Assays:
# Settings in all cases: cited from earlier work
# [1] = target: T1, panel of 255 wild-type kinases (Homo sapiens, UniProt O15146)
# T1 sequence (O15146 24-869): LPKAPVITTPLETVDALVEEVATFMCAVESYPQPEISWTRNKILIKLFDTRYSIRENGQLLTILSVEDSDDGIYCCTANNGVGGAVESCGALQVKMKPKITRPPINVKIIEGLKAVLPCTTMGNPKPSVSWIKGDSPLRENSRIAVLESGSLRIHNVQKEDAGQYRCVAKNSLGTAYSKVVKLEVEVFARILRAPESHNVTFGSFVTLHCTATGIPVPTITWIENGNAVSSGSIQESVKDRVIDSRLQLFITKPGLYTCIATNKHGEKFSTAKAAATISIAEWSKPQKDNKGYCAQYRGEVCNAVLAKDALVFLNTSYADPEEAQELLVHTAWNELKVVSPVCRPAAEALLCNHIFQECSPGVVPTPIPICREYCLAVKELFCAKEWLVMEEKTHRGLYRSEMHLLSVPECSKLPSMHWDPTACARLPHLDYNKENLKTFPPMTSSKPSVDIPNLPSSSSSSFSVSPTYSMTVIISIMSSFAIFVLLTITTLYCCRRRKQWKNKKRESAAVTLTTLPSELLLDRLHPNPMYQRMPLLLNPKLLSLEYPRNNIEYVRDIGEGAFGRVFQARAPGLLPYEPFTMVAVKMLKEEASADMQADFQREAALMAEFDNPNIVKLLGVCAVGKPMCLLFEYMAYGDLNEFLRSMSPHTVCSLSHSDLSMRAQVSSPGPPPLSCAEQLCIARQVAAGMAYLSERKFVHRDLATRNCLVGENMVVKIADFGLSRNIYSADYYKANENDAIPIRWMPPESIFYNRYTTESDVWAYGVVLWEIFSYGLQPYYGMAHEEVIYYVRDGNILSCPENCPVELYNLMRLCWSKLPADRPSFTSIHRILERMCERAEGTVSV
# [2] = target: T2, panel of 255 wild-type kinases (Homo sapiens, UniProt P54753)
# T2 sequence (P54753 34-998): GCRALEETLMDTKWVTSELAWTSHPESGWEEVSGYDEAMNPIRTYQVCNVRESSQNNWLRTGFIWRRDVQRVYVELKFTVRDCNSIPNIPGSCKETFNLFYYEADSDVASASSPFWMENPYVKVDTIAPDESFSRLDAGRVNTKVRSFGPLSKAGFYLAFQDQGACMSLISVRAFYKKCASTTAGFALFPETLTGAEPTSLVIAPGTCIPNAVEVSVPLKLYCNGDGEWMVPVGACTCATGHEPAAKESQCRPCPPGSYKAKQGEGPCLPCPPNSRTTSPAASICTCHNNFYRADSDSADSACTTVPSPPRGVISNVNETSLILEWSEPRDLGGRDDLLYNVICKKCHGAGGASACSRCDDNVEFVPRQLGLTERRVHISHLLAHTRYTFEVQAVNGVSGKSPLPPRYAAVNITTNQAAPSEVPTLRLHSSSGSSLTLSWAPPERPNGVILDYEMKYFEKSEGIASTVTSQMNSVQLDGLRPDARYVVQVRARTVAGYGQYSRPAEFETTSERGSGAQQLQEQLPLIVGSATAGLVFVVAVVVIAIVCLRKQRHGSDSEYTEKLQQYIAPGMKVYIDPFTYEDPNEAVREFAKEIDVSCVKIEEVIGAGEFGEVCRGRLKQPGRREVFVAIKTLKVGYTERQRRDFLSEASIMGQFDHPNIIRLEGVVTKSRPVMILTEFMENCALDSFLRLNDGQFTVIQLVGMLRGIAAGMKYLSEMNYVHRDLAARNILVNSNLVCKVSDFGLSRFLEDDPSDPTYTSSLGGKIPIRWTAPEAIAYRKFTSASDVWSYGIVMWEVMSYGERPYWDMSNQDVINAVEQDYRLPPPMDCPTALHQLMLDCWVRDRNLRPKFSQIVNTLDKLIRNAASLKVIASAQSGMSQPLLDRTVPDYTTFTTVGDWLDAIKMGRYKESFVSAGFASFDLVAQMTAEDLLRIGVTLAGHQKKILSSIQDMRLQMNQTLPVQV
# [3] = target: panel of 255 wild-type kinases (Homo sapiens, UniProt Q9HC98)
# [4] = target: panel of 255 wild-type kinases (Homo sapiens, UniProt Q9NQU5)
# [5] = target: T3, panel of 255 wild-type kinases (Homo sapiens, UniProt Q9NRA0)
# T3 sequence (Q9NRA0 1-654): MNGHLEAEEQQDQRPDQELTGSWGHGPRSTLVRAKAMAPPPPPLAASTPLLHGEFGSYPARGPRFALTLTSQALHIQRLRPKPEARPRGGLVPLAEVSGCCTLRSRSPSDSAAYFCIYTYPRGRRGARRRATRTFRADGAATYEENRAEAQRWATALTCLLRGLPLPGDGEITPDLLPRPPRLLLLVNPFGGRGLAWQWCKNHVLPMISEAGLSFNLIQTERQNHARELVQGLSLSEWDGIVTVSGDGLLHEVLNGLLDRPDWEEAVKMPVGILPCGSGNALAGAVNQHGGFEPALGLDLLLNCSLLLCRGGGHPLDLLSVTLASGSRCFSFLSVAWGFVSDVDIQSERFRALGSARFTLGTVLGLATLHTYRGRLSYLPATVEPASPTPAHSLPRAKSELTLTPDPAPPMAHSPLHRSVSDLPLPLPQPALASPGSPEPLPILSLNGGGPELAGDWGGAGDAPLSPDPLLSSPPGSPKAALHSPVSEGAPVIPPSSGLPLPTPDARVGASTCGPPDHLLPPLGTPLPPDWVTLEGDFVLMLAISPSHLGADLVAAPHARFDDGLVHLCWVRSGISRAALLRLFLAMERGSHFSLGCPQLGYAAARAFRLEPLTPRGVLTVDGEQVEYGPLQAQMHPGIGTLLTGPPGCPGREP
# [6] = MUSK, 1 µmol/L single concentration, ref DOI: 10.1158/1535-7163.MCT-18-0877
# [7] = kinase EPHB3, 1 µmol/L single concentration, ref DOI: 10.1158/1535-7163.MCT-18-0877
# [8] = NEK6, 1 µmol/L single concentration, ref DOI: 10.1158/1535-7163.MCT-18-0877
# [9] = PAK6, 1 µmol/L single concentration, ref DOI: 10.1158/1535-7163.MCT-18-0877
# [10] = kinase SPHK2, 1 µmol/L single concentration, ref DOI: 10.1158/1535-7163.MCT-18-0877
# [11] = MUSK, 1 µmol/L single concentration, ref DOI: 10.1371/journal.pone.0092146
# [12] = kinase EPHB3, 1 µmol/L single concentration, ref DOI: 10.1371/journal.pone.0092146
# [13] = NEK6, 1 µmol/L single concentration, ref DOI: 10.1371/journal.pone.0092146
# [14] = PAK6, 1 µmol/L single concentration, ref DOI: 10.1371/journal.pone.0092146
# [15] = kinase SPHK2, 1 µmol/L single concentration, ref DOI: 10.1371/journal.pone.0092146
Compound,"%-inhibition, MUSK [1, 6]","%-inhibition at 1 µmol/L, EPHB3 [2, 7]","%-inhibition, NEK6 [3, 8]","%-inhibition, PAK6 [4, 9]","%-inhibition at 1 µmol/L, SPHK2 [5, 10]","%-inhibition, MUSK [1, 11]","%-inhibition at 1 µmol/L, EPHB3 [2, 12]","%-inhibition, NEK6 [3, 13]","%-inhibition, PAK6 [4, 14]","%-inhibition at 1 µmol/L, SPHK2 [5, 15]",further results
CC#CC(=O)N1CCC[C@H]1c1nc(-c2ccc(C(=O)Nc3ccccn3)cc2)c2c(N)nccn12 [acalabrutinib],-0.581%,1.64%,-5.54%,-9%,7%,,,,,,
CCc1cc2c(cc1N1CCC(N3CCOCC3)CC1)C(C)(C)c1[nH]c3cc(C#N)ccc3c1C2=O [alectinib],6%,2%,1.43%,-8%,1.74%,,,,,,
COc1cc(N2CCC(N3CCN(C)CC3)CC2)ccc1Nc1ncc(Cl)c(Nc2ccccc2P(C)(C)=O)n1 [brigatinib],,,,,,,,,,,"%-inhibition, MUSK [1]: 82%; %-inhibition at 1 µmol/L, EPHB3 [2]: 0.727%; %-inhibition, NEK6 [3]: 0.534%; %-inhibition, PAK6 [4]: 26%; %-inhibition at 1 µmol/L, SPHK2 [5]: 11%"
Cc1cc(Nc2ncc(Cl)c(Nc3ccccc3S(=O)(=O)C(C)C)n2)c(OC(C)C)cc1C1CCNCC1 [ceritinib],45%,-1%,0.593%,18%,6.4%,,,,,,
O=C(c1ccc(F)c(F)c1Nc1ccc(I)cc1F)N1CC(O)([C@@H]2CCCCN2)C1 [cobimetinib],2.78%,0.898%,1.81%,2%,11%,,,,,,
C[C@@H](Oc1cc(-c2cnn(C3CCNCC3)c2)cnc1N)c1c(Cl)ccc(F)c1Cl [crizotinib],,,,,,99%,5%,-2.72%,3%,8%,
CC(C)(C)c1nc(-c2cccc(NS(=O)(=O)c3c(F)cccc3F)c2F)c(-c2ccnc(N)n2)s1 [dabrafenib],,,,,,16%,3%,-3%,9%,-14%,
C=CC(=O)N1CCC[C@@H](n2nc(-c3ccc(Oc4ccccc4)cc3)c3c(N)ncnc32)C1 [ibrutinib],1.76%,3%,0.77%,9%,10%,,,,,,
CO[C@@H]1[C@H](N(C)C(=O)c2ccccc2)C[C@H]2O[C@]1(C)n1c3ccccc3c3c4c(c5c6ccccc6n2c5c31)C(=O)NC4 [midostaurin],94%,1.53%,-8%,52%,12%,,,,,,
C=CC(=O)Nc1cc(Nc2nccc(-c3cn(C)c4ccccc34)n2)c(OC)cc1N(C)CCN(C)C [osimertinib],8%,-0.0464%,0.319%,7%,15%,,,,,,
CC(=O)Nc1cccc(-n2c(=O)n(C3CC3)c(=O)c3c(Nc4ccc(I)cc4F)n(C)c(=O)c(C)c32)c1 [trametinib],,,,,,-0.929%,-5.47%,-0.324%,8%,-14%,
CCCS(=O)(=O)Nc1ccc(F)c(C(=O)c2c[nH]c3ncc(-c4ccc(Cl)cc4)cc23)c1F [vemurafenib],,,,,,-0.285%,2%,-1.43%,-7%,8%,
